Several values for one entry are separate records, joined by “and”; a condition that tells them apart may be missing. Equal entries are not always repeated. Results filed as inconclusive are left out.

The test relates to CD8F1 mice, subcutaneous mammary adenocarcinoma, T/C%. Kind of test: NCI In Vivo Anticancer Drug Screen. Data for tumor model Mammary Adenocarcinoma CD8F1 (subcutaneous) in CD8F1. The note with it: higher = larger tumour. How it is done: The antitumor activity of compounds was measured in mice bearing transplantable tumors. Survival or tumor size were measured and the results are expressed as the measurement made in the treated group (T) divided by the measurement made in the vehicle treated control group (C). The tumor model used in this assay is Mammary Adenocarcinoma CD8F1 (subcutaneous) in CD8F1

Where [1] appears, read: endpoint: median tumor weight (est.), dose: 25.0 mg/kg/injection, schedule: Q07DX005 (ip), vehicle: saline with Tween-80.
Where [2] appears, read: endpoint: median tumor weight change, dose: 125.0 mg/kg/injection, schedule: Q01DX001 (ip), vehicle: saline with Tween-80.
Where [3] appears, read: endpoint: median tumor weight change, dose: 1000.0 mg/kg/injection, schedule: Q01DX001 (ip), vehicle: saline with Tween-80.
Where [4] appears, read: endpoint: median tumor weight change, dose: 62.5 mg/kg/injection, schedule: Q01DX001 (ip), vehicle: saline with Tween-80.
The mark [5] stands for this setting: endpoint: median tumor weight (est.), dose: 12.5 mg/kg/injection, schedule: Q07DX005 (ip), vehicle: saline.
Where [6] appears, read: endpoint: median tumor weight (est.), dose: 25.0 mg/kg/injection, schedule: Q07DX005 (ip), vehicle: saline.
Where [7] appears, read: endpoint: median tumor weight change, dose: 250.0 mg/kg/injection, schedule: Q01DX001 (ip), vehicle: saline with Tween-80.
[8] abbreviates: endpoint: median tumor weight change, dose: 500.0 mg/kg/injection, schedule: Q01DX001 (ip), vehicle: saline with Tween-80.

Consider `COc1ccc(OC)c(Cc2cnc3nc(N)nc(N)c3c2C)c1`, for which the T/C is, setting by setting: (endpoint: median tumor weight change, dose: 31.25 mg/kg/injection, schedule: Q01DX001 (ip), vehicle: other) 47 % of control; (endpoint: median tumor weight change, dose: 62.5 mg/kg/injection, schedule: Q01DX001 (ip), vehicle: other) 64 % of control.

As for `CC[C@H](CC[C@@H](C)C1CC[C@H]2[C@@H]3CC=C4C[C@@H](OP(=O)(N5CC5)N5CC5)CC[C@]4(C)[C@H]3CC[C@]12C)C(C)C` (stereo partly drawn), the T/C was 77 % of control under setting [1]; 56 % of control and 75 % of control (endpoint: median tumor weight (est.), dose: 50.0 mg/kg/injection, schedule: Q07DX005 (ip), vehicle: saline with Tween-80); 72 % of control and 75 % of control (endpoint: median tumor weight (est.), dose: 200.0 mg/kg/injection, schedule: Q07DX005 (ip), vehicle: saline with Tween-80); 82 % of control under setting [2]; 41 % of control and 44 % of control under setting [3]; 9 % of control and 14 % of control (endpoint: median tumor weight change, dose: 2000.0 mg/kg/injection, schedule: Q01DX001 (ip), vehicle: saline with Tween-80).

For the compound `Cc1cc(NCCCCCCCNc2cc(C)nc3cc(N)ccc23)c2ccc(N)cc2n1`, the T/C was 89 % of control (endpoint: median tumor weight (est.), dose: 3.12 mg/kg/injection, schedule: Q07DX005 (ip), vehicle: saline with Tween-80); 111 % of control (endpoint: median tumor weight (est.), dose: 6.25 mg/kg/injection, schedule: Q07DX005 (ip), vehicle: saline with Tween-80); 79 % of control (endpoint: median tumor weight (est.), dose: 12.5 mg/kg/injection, schedule: Q07DX005 (ip), vehicle: saline with Tween-80); 26 % of control under setting [1]; 28 % of control and 45 % of control (endpoint: median tumor weight change, dose: 31.25 mg/kg/injection, schedule: Q01DX001 (ip), vehicle: saline with Tween-80); 27 % of control under setting [4].

Regarding `C[C@H]1C[C@@H]2[C@H]([C@@H](O)C[C@@]3(C)[C@H]2CC[C@]3(O)C(=O)CO)[C@@]2(C)C=CC(=O)C=C12`, the T/C by setting is: (endpoint: median tumor weight (est.), dose: 6.25 mg/kg/injection, schedule: Q07DX005 (ip), vehicle: Klucel (hydroxypropylcellulose) (HPC)) 70 % of control; (endpoint: median tumor weight (est.), dose: 12.5 mg/kg/injection, schedule: Q07DX005 (ip), vehicle: Klucel (hydroxypropylcellulose) (HPC)) 63 % of control; (endpoint: median tumor weight (est.), dose: 25.0 mg/kg/injection, schedule: Q07DX005 (ip), vehicle: Klucel (hydroxypropylcellulose) (HPC)) 63 % of control; (endpoint: median tumor weight (est.), dose: 50.0 mg/kg/injection, schedule: Q07DX005 (ip), vehicle: Klucel (hydroxypropylcellulose) (HPC)) 60 % of control; (endpoint: median tumor weight (est.), dose: 100.0 mg/kg/injection, schedule: Q07DX005 (ip), vehicle: Klucel (hydroxypropylcellulose) (HPC)) 53 % of control; (endpoint: median tumor weight (est.), dose: 200.0 mg/kg/injection, schedule: Q07DX005 (ip), vehicle: Klucel (hydroxypropylcellulose) (HPC)) 28 % of control.

Take `CCC1CN2C(=N1)c1ccccc1-c1cc(Cl)ccc12` (stereo not drawn): the T/C is 82 % of control (endpoint: median tumor weight (est.), dose: 3.12 mg/kg/injection, schedule: Q07DX005 (ip), vehicle: saline); 111 % of control (endpoint: median tumor weight (est.), dose: 3.12 mg/kg/injection, schedule: Q07DX005 (ip), vehicle: suspension in saline); 42 % of control (endpoint: median tumor weight (est.), dose: 6.25 mg/kg/injection, schedule: Q07DX005 (ip), vehicle: saline); 43 % of control under setting [5]; 98 % of control (endpoint: median tumor weight (est.), dose: 12.5 mg/kg/injection, schedule: Q07DX005 (ip), vehicle: suspension in saline); 30 % of control under setting [6]. For the same compound, the T/C is, setting by setting: (endpoint: median tumor weight (est.), dose: 25.0 mg/kg/injection, schedule: Q07DX005 (ip), vehicle: suspension in saline) 64 % of control; (endpoint: median tumor weight (est.), dose: 50.0 mg/kg/injection, schedule: Q07DX005 (ip), vehicle: suspension in saline) 97 % of control.

Regarding `C=C(C)[C@]12CC(C)C34OC(/C=C\C=C\CCCCCCCCC)(O[C@@H]1[C@@H]3[C@@H]1O[C@]1(CO)[C@@H](O)[C@]1(O)C(=O)C(C)=C[C@@H]41)O2` (stereo partly drawn), the T/C is 110 % of control (endpoint: median tumor weight (est.), dose: 0.37 mg/kg/injection, schedule: Q07DX002 (ip), vehicle: saline + alcohol); 82 % of control (endpoint: median tumor weight (est.), dose: 0.37 mg/kg/injection, schedule: Q07DX005 (ip), vehicle: saline + alcohol); 121 % of control (endpoint: median tumor weight (est.), dose: 0.75 mg/kg/injection, schedule: Q07DX002 (ip), vehicle: saline + alcohol); 116 % of control (endpoint: median tumor weight (est.), dose: 0.75 mg/kg/injection, schedule: Q07DX005 (ip), vehicle: saline + alcohol); 201 % of control (endpoint: median tumor weight (est.), dose: 1.5 mg/kg/injection, schedule: Q07DX002 (ip), vehicle: saline + alcohol); 72 % of control (endpoint: median tumor weight (est.), dose: 1.5 mg/kg/injection, schedule: Q07DX005 (ip), vehicle: saline + alcohol).

In the case of `COC1=C(N)C(=O)c2nc(-c3nc(C(=O)O)c(C)c(-c4ccc(OC)c(OC)c4O)c3N)ccc2C1=O`, the T/C was 69 % of control (endpoint: median tumor weight (est.), dose: 0.1 mg/kg/injection, schedule: Q07DX005 (ip), vehicle: Klucel (hydroxypropylcellulose) (HPC)); 16 % of control and 34 % of control (endpoint: median tumor weight (est.), dose: 0.1 mg/kg/injection, schedule: Q07DX005 (ip), vehicle: saline); 10 % of control (endpoint: median tumor weight (est.), dose: 0.12 mg/kg/injection, schedule: Q07DX005 (ip), vehicle: Klucel (hydroxypropylcellulose) (HPC)); 12 % of control (endpoint: median tumor weight (est.), dose: 0.2 mg/kg/injection, schedule: Q07DX005 (ip), vehicle: Klucel (hydroxypropylcellulose) (HPC)); 11 % of control and 20 % of control (endpoint: median tumor weight (est.), dose: 0.2 mg/kg/injection, schedule: Q07DX005 (ip), vehicle: saline); 7 % of control (endpoint: median tumor weight (est.), dose: 0.4 mg/kg/injection, schedule: Q07DX005 (ip), vehicle: Klucel (hydroxypropylcellulose) (HPC)). The T/C (endpoint: median tumor weight (est.), dose: 0.4 mg/kg/injection, schedule: Q07DX005 (ip), vehicle: saline) was 3 % of control; the T/C (endpoint: median tumor weight change, dose: 0.5 mg/kg/injection, schedule: Q01DX001 (ip), vehicle: Klucel (hydroxypropylcellulose) (HPC)) is 32 % of control and 41 % of control.

Consider `C=COC(=O)C(Cc1ccccc1)NC(=O)OCc1ccccc1` (stereo not drawn), for which the T/C by setting is: under setting [4], 103 % of control; under setting [2], 58 % of control; under setting [7], 46 % of control; under setting [8], 33 % of control; under setting [3], 75 % of control.

Consider `O=c1[nH]c(=O)c2nc(-c3cccnc3)cnc2[nH]1`, for which the T/C is, setting by setting: under setting [5], 122 % of control; under setting [6], 93 % of control; (endpoint: median tumor weight (est.), dose: 50.0 mg/kg/injection, schedule: Q07DX005 (ip), vehicle: saline) 58 % of control; (endpoint: median tumor weight (est.), dose: 100.0 mg/kg/injection, schedule: Q07DX005 (ip), vehicle: saline) 93 % of control; (endpoint: median tumor weight (est.), dose: 200.0 mg/kg/injection, schedule: Q07DX005 (ip), vehicle: saline) 90 % of control; (endpoint: median tumor weight (est.), dose: 400.0 mg/kg/injection, schedule: Q07DX005 (ip), vehicle: saline) 62 % of control.

Take `CC(=O)ON(C(C)=O)c1ccc(C(N)=O)cc1`: the T/C by setting is: under setting [4], 68 % of control; under setting [2], 96 % of control; under setting [7], 64 % of control.

Take `CC(=O)O[C@H]1C(=O)[C@@]2(C)[C@H]([C@H](OC(=O)c3ccccc3)[C@]3(O)C[C@H](OC(=O)[C@H](O)[C@@H](NC(=O)c4ccccc4)c4ccccc4)C(C)=C1C3(C)C)[C@]1(OC(C)=O)CO[C@@H]1C[C@@H]2O`: where the note is “endpoint: median tumor weight (est.), dose: 15.0 mg/kg/injection, schedule: Q07DX005 (ip), vehicle: Klucel (hydroxypropylcellulose) (HPC)”, the T/C was 57 % of control.

Consider `N[C@H](C(=O)O)[C@@H]1CC(Cl)=NO1`, for which the T/C is, setting by setting: (endpoint: median tumor weight (est.), dose: 1.0 mg/kg/injection, schedule: Q07DX005 (ip), vehicle: saline) 167 % of control; (endpoint: median tumor weight (est.), dose: 2.0 mg/kg/injection, schedule: Q07DX005 (ip), vehicle: saline) 92 % of control and 100 % of control and 101 % of control; (endpoint: median tumor weight (est.), dose: 128.0 mg/kg/injection, schedule: Q07DX005 (ip), vehicle: saline) 13 % of control.

For `O=C1c2ccccc2C(=O)c2c3c(cc(NCCNCCO)c21)N(CCO)CCN3`, the T/C by setting is: under setting [2], 97 % of control; under setting [7], 91 % of control; under setting [8], 77 % of control.

`NC1=NC(=O)N2CC12` (stereo not drawn): the T/C reads like this: (endpoint: median tumor weight change, dose: 125.0 mg/kg/injection, schedule: Q01DX001 (ip), vehicle: saline) 115 % of control; (endpoint: median tumor weight change, dose: 250.0 mg/kg/injection, schedule: Q01DX001 (ip), vehicle: saline) 122 % of control.

As to `Cc1cc(NCCN(C(C)C)C(C)C)nc(/N=C(\N)Nc2ccc(Cl)c(C(F)(F)F)c2)n1`, the T/C was 39 % of control and 45 % of control (endpoint: median tumor weight change, dose: 12.5 mg/kg/injection, schedule: Q01DX001 (ip), vehicle: Klucel (hydroxypropylcellulose) (HPC)); 27 % of control and 39 % of control (endpoint: median tumor weight change, dose: 50.0 mg/kg/injection, schedule: Q01DX001 (ip), vehicle: Klucel (hydroxypropylcellulose) (HPC)); 50 % of control and 74 % of control (endpoint: median tumor weight change, dose: 100.0 mg/kg/injection, schedule: Q01DX001 (ip), vehicle: Klucel (hydroxypropylcellulose) (HPC)).

(Values after PubChem BioAssay AID220 (DTP/NCI, 2004).)
